For data set [1], the system named is advanced hematologic malignancies with an IDH2 mutation. Briefly: Phase 1/2 study of orally administered COMPOUND A: clinical activity (overall response rate). Format: in vivo, human. As to conditions: 44 subjects treated at 100 mg QD; preliminary efficacy data. The source says: This was a Phase 1/2, multicenter, open-label, 3-part (Phase 1 dose escalation, Phase 1 Part 1 Expansion, and Phase 2), safety, PK/PD, and clinical activity evaluation of orally administered COMPOUND A in subjects with advanced hematologic malignancies, for example MDS, that harbor an IDH2 mutation. The study included a dose escalation phase to determine MTD/MAD and/or RP2D, an expansion phase (Part 1) to further evaluate the safety, tolerability, and clinical activity of COMPOUND A, and a Phase 2 to assess the clinical efficacy of COMPOUND A at the RP2D and to further evaluate safety in subjects with refractory and relapsed AML carrying an IDH2 mutation.
Subjects in the dose escalation phase and Part 1 Expansion had the extent of their disease assessed, including bone marrow biopsies and/or aspirates and peripheral blood, at screening, on C1D15, C2D1, and C3D1, every 28 days (peripheral blood only) or every 56 days (bone marrow biopsies and/or aspirates and peripheral blood) thereafter while on study drug treatment, independent of dose delays and/or dose interruptions, and/or at any time when progression of disease was suspected. Response to treatment and treatment decisions in all subjects was determined by the Investigators based on modified International Working Group (IWG) response criteria or other appropriate response criteria for the malignancy under study. […]

Data set [2] deals with patients with MDS and mIDH2. Briefly: Example 3: safety, treatment-emergent adverse events.
Source text: A DLT was defined as outlined below.
Patients were relapsed or refractory to prior MDS therapy (Tx) or were not candidates for standard therapies. […] Evaluable patients required a response assessment at Cycle 2 Day 1 or later, or discontinued before assessment. Overall survival (OS) was estimated using Kaplan-Meier methods. Next-generation sequencing identified pre-existing co-occurring genomic alterations using the FoundationOne Heme test on purified mononuclear cells from BM or PB, to assess relationships between co-mutational status and clinical response.

Take `CC(C)(O)CNc1nc(Nc2ccnc(C(F)(F)F)c2)nc(-c2cccc(C(F)(F)F)n2)n1.CS(=O)(=O)O` [COMPOUND A, mesylate salt of 2-methyl-1-[(4-[6-(trifluoromethyl)pyridin-2-yl]-6-{[2-(trifluoromethyl)pyridin-4-yl]amino}-1,3,5-triazin-2-yl)amino]propan-2-ol]: the overall response rate in data set [1] was 36.4%. For the same molecule, in data set [2] (MDS patients n=17), the “Grade 3-4 TEAE Anemia” value was 18%, the “Grade 3-4 TEAE Dyspnea” value was found to be 12%, the “Grade 3-4 TEAE Tumor lysis syndrome” value amounted to 12% and the “Grade 3-4 TEAE hypokalemia” value is 18%. Further, in data set [2] (MDS patients n=17), the “Grade 3-4 TEAE pneumonia” value is reported as 24%; the “Grade 3-4 TEAE thrombocytopenia” value was 24%; the “Grade 3-4 treatment-emergent AEs (TEAEs)” value amounted to 82%; the “Grade 3-4 treatment-emergent AEs (TEAEs), patients” value came to 14 patients. Besides, in data set [2] (MDS patients n=17), the “grade 3-4 drug-related TEAE, patients” value was “Six” and the treatment related deaths entry is on record as “No treatment related deaths were reported”. The “COMPOUND A-related serious TEAEs, patients” value in data set [2] (n=17, tumor lysis syndrome [2], blood bilirubin increased, transaminitis) amounted to 4 patients. Further, the “Grade 3-4 TEAE Hyperbilirubinemia” value in data set [2] (n=17, unconjugated, includes hyperbilirubinemia and blood bilirubin increased) is recorded as 30%.

For the origin of these results see US20180042930A1, “METHODS OF TREATMENT OF MALIGNANCIES” (Celgene Corporation, priority 2016, published 2018).
